Read-outs that look alike come from different tables or passages of the source.
Experiments:
Type in all cases: cell-based
[1] = system: HIV-1 strain 92HT599; assay: Antiviral activity against HIV-1 strain 92HT599 in MT2 cells (p24 estimation); settings: HIV-1 92HT599, ~96 hours
How it was run: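 Percent inhibition versus vehicle controls came from p24 quantified in supernatant aliquots. These were taken after ~96 h incubation of compound (DMSO ≤1%) with MT2 cells infected at 10 TCID50/30,000 cells.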

[2] = system: HIV-1 pNL4-3 WT; assay: Antiviral activity against pNL4-3/WT strain in MT4 cells (p24 estimation); settings: Human immunodeficiency virus 1, MT4, 96 h, read-out: pNL4-3 WT IC50
Experimental: (§1) Example 78: Evaluation of Compounds Antiviral Activity Against pNL4-3/WT & V7A Strains in MT4 Cells
(§2) MT4 cells were Transfected with HIV-1 Plasmid (pNL4-3-WT & V7A) (Cells were incubating with required number of TCID50 of HIV-1 for 1.5 h at 37° C.). After infection, the infected cells were plated at the concentration of 3×10^4 cells per well in 96 well plate. Test compound was added to the test plate in defined format with the final concentration of DMSO is not more than 1%. Incubation was carried out in CO2 incubator for 4 days for viral infection. At the end of incubation period an aliquot from each well was taken for p24 estimation. p24 estimation was carried out using Advance biosciences kit as per the procedure detailed by supplier.

[3] = system: HIV-1 pNL4-3 V7A; assay: Antiviral activity against pNL4-3/V7A strain in MT4 cells (p24 estimation); settings: Human immunodeficiency virus 1, MT4, 96 h, read-out: pNL4-3 V7A IC50
Experimental: as §1, §2

[4] = Human immunodeficiency virus 1, 0% serum binding assay, read-out: IC50 0% serum
[5] = Human immunodeficiency virus 1, 40% serum binding assay, read-out: IC50 40% serum

| SMILES | IC50 [1, 4] | IC50 [1, 5] | IC50 [2] | IC50 [3] |
| --- | --- | --- | --- | --- |
| CC(C)C1=C2[C@H]3CC[C@@H]4[C@@]5(C)CC[C@H](OC(=O)[C@H]6C[C@@H](C(=O)O)C6(C)C)C(C)(C)[C@@H]5CC[C@@]4(C)[C@]3(C)CC[C@@]2(NC(=O)C(C)(C)NC(=O)c2cc(C(C)C)n[nH]2)CC1=O [Example 17, (1R,3S)-3-((((3aR,5aR,5bR,7aR,9S,11aR,11bR,13aS)-1-isopropyl-3a-(2-(3-isopropyl-1H-pyrazole-5-carboxamido)-2-methylpropanamido)-5a,5b,8,8,11a-pentamethyl-2-oxo-3,3a,4,5,5a,5b,6,7,7a,8,9,10,11,11a,11b,12,13,13a-octadecahydro-2H-cyclopenta[a]chrysen-9-yl)oxy)carbonyl)-2,2-dimethylcyclobutane-1-carboxylic acid] | < 3 nM | < 50 nM | < 5 nM | < 10 nM |
| Cc1cn(-c2ccc(C(=O)NC(C)(C)C(=O)N[C@@]34CC[C@]5(C)[C@H](CC[C@@H]6[C@@]7(C)CC[C@H](OC(=O)[C@H]8C[C@@H](C(=O)O)C8(C)C)C(C)(C)[C@@H]7CC[C@]65C)C3=C(C(C)C)C(=O)C4)cc2)cn1 [Example 20, (1R,3S)-3-((((3aR,5aR,5bR,7aR,9S,11aR,11bR,13aS)-1-isopropyl-5a,5b,8,8,11a-pentamethyl-3a-(2-methyl-2-(4-(4-methyl-1H-imidazol-1-yl)benzamido)propanamido)-2-oxo-3,3a,4,5,5a,5b,6,7,7a,8,9,10,11,11a,11b,12,13,13a-octadeca hydro-2H-cyclopenta[a]chrysen-9-yl)oxy)carbonyl)-2,2-dimethylcyclobutane-1-carboxylic acid] | < 3 nM | < 50 nM | > 10 nM | > 50 nM |
| Cc1noc(C)c1C(=O)NC(C)(C)C(=O)N[C@@]12CC[C@]3(C)[C@H](CC[C@@H]4[C@@]5(C)CC[C@H](OC(=O)[C@H]6C[C@@H](C(=O)O)C6(C)C)C(C)(C)[C@@H]5CC[C@]43C)C1=C(C(C)C)C(=O)C2 [Example 19, (1R,3S)-3-((((3aR,5aR,5bR,7aR,9S,11aR,11bR,13aS)-3a-(2-(3,5-dimethylisoxazole-4-carboxamido)-2-methylpropanamido)-1-isopropyl-5a,5b,8,8,11a-pentamethyl-2-oxo-3,3a,4,5,5a,5b,6,7,7a,8,9,10,11,11a,11b,12,13,13a-octadecahydro-2H-cyclopenta[a]chrysen-9-yl)oxy)carbonyl)-2,2-dimethylcyclobutane-1-carboxylic acid] | < 3 nM | < 50 nM | < 5 nM | < 10 nM |
| CC(C)C1=C2[C@H]3CC[C@@H]4[C@@]5(C)CC[C@H](OC(=O)[C@H]6C[C@@H](C(=O)O)C6(C)C)C(C)(C)[C@@H]5CC[C@@]4(C)[C@]3(C)CC[C@@]2(NC(=O)C(C)(C)NC(=O)c2ncccn2)CC1=O [Example 32, (1R,3S)-3-((((3aR,5aR,5bR,7aR,9S,11aR,11bR,13aS)-1-isopropyl-5a,5b,8,8,11a-pentamethyl-3a-(2-methyl-2-(pyrimidine-2-carboxamido)propanamido)-2-oxo-3,3a,4,5,5a,5b,6,7,7a,8,9,10,11,11a,11b,12,13,13a-octadecahydro-2H-cyclopenta[a]chrysen-9-yl)oxy)carbonyl)-2,2-dimethylcyclobutane-1-carboxylic acid] | 3.01 to 10 nM | > 200 nM | > 10 nM | > 50 nM |
| CC(C)C1=C2[C@H]3CC[C@@H]4[C@@]5(C)CC[C@H](OC(=O)[C@H]6C[C@@H](C(=O)O)C6(C)C)C(C)(C)[C@@H]5CC[C@@]4(C)[C@]3(C)CC[C@@]2(NC(=O)C(C)(C)NC(=O)Cc2ccc(Cl)cc2)CC1=O [Example 53, (1R,3S)-3-((((3aR,5aR,5bR,7aR,9S,11aR,11bR,13aS)-3a-(2-(2-(4-chlorophenyl)acetamido)-2-methylpropanamido)-1-isopropyl-5a,5b,8,8,11a-pentamethyl-2-oxo-3,3a,4,5,5a,5b,6,7,7a,8,9,10,11,11a,11b,12,13,13a-octadecahydro-2H-cyclopenta[a]chrysen-9-yl)oxy)carbonyl)-2,2-dimethylcyclobutane-1-carboxylic acid] | < 3 nM | < 50 nM | < 5 nM | < 10 nM |
| CC(C)C1=C2[C@H]3CC[C@@H]4[C@@]5(C)CC[C@H](OC(=O)[C@H]6C[C@@H](C(=O)O)C6(C)C)C(C)(C)[C@@H]5CC[C@@]4(C)[C@]3(C)CC[C@@]2(NC(=O)C(C)(C)NC(=O)c2ccc(Cl)cn2)CC1=O [Example 70, (1R,3S)-3-((((3aR,5aR,5bR,7aR,9S,11aR,11bR,13aS)-3a-(2-(5-chloropicolinamido)-2-methylpropanamido)-1-isopropyl-5a,5b,8,8,11a-pentamethyl-2-oxo-3,3a,4,5,5a,5b,6,7,7a,8,9,10,11,11a,11b,12,13,13a-octadecahydro-2H-cyclopenta[a]chrysen-9-yl)oxy)carbonyl)-2,2-dimethylcyclobutane-1-carboxylic acid] | < 3 nM | < 50 nM | < 5 nM | < 10 nM |
| CC(C)C1=C2[C@H]3CC[C@@H]4[C@@]5(C)CC[C@H](OC(=O)[C@H]6C[C@@H](C(=O)O)C6(C)C)C(C)(C)[C@@H]5CC[C@@]4(C)[C@]3(C)CC[C@@]2(NC(=O)C(C)(C)NC(=O)c2ccc(S(C)(=O)=O)cc2)CC1=O [Example 51, (1R,3S)-3-((((3aR,5aR,5bR,7aR,9S,11aR,11bR,13aS)-1-isopropyl-5a,5b,8,8,11a-pentamethyl-3a-(2-methyl-2-(4-(methylsulfonyl)benzamido)propanamido)-2-oxo-3,3a,4,5,5a,5b,6,7,7a,8,9,10,11,11a,11b,12,13,13a-octadecahydro-2H-cyclopenta[a]chrysen-9-yl)oxy)carbonyl)-2,2-dimethylcyclobutane-1-carboxylic acid] | < 3 nM | < 50 nM | 5.01 to 10 nM | > 50 nM |
| Cc1occc1C(=O)NC(C)(C)C(=O)N[C@@]12CC[C@]3(C)[C@H](CC[C@@H]4[C@@]5(C)CC[C@H](OC(=O)[C@H]6C[C@@H](C(=O)O)C6(C)C)C(C)(C)[C@@H]5CC[C@]43C)C1=C(C(C)C)C(=O)C2 [Example 30, (1R,3S)-3-((((3aR,5aR,5bR,7aR,9S,11aR,11bR,13aS)-1-isopropyl-5a,5b,8,8,11a-pentamethyl-3a-(2-methyl-2-(2-methylfuran-3-carboxamido)propan amido)-2-oxo-3,3a,4,5,5a,5b,6,7,7a,8,9,10,11,11a,11b,12,13,13a-octadecahydro-2H-cyclopenta[a]chrysen-9-yl)oxy)carbonyl)-2,2-dimethylcyclobutane-1-carboxylic acid] | < 3 nM | < 50 nM | 5.01 to 10 nM | > 50 nM |
| Cc1cc(C(=O)NC(C)(C)C(=O)N[C@@]23CC[C@]4(C)[C@H](CC[C@@H]5[C@@]6(C)CC[C@H](OC(=O)[C@H]7C[C@@H](C(=O)O)C7(C)C)C(C)(C)[C@@H]6CC[C@]54C)C2=C(C(C)C)C(=O)C3)c(C)o1 [Example 33, (1R,3S)-3-((((3aR,5aR,5bR,7aR,9S,11aR,11bR,13aS)-3a-(2-(2,5-dimethylfuran-3-carboxamido)-2-methylpropanamido)-1-isopropyl-5a,5b,8,8,11a-pentamethyl-2-oxo-3,3a,4,5,5a,5b,6,7,7a,8,9,10,11,11a,11b,12,13,13a-octadecahydro-2H-cyclopenta[a]chrysen-9-yl)oxy)carbonyl)-2,2-dimethylcyclobutane-1-carboxylic acid] | < 3 nM | < 50 nM | < 5 nM | < 10 nM |
| CC(C)C1=C2[C@H]3CC[C@@H]4[C@@]5(C)CC[C@H](OC(=O)[C@H]6C[C@@H](C(=O)O)C6(C)C)C(C)(C)[C@@H]5CC[C@@]4(C)[C@]3(C)CC[C@@]2(NC(=O)C(C)(C)NC(=O)c2ccc(C(F)(F)F)cc2)CC1=O [Example 25, (1R,3S)-3-((((3aR,5aR,5bR,7aR,9S,11aR,11bR,13aS)-1-isopropyl-5a,5b,8,8,11a-pentamethyl-3a-(2-methyl-2-(4-(trifluoromethyl)benzamido)propan amido)-2-oxo-3,3a,4,5,5a,5b,6,7,7a,8,9,10,11,11a,11b,12,13,13a-octadecahydro-2H-cyclopenta[a]chrysen-9-yl)oxy)carbonyl)-2,2-dimethylcyclobutane-1-carboxylic acid] | < 3 nM | < 50 nM | < 5 nM | < 10 nM |
| CC(C)C1=C2[C@H]3CC[C@@H]4[C@@]5(C)CC[C@H](OC(=O)[C@H]6C[C@@H](C(=O)O)C6(C)C)C(C)(C)[C@@H]5CC[C@@]4(C)[C@]3(C)CC[C@@]2(NC(=O)C2(NC(=O)c3ncccn3)CCC2)CC1=O [Example 44, (1R,3S)-3-((((3aR,5aR,5bR,7aR,9S,11aR,11bR,13aS)-1-isopropyl-5a,5b,8,8,11a-pentamethyl-2-oxo-3a-(1-(pyrimidine-2-carboxamido)cyclobutane-1-carboxamido)-3,3a,4,5,5a,5b,6,7,7a,8,9,10,11,11a,11b,12,13,13a-octadecahydro-2H-cyclopenta[a]chrysen-9-yl)oxy)carbonyl)-2,2-dimethylcyclobutane-1-carboxylic acid] | < 3 nM | 50 to 200 nM | > 10 nM | > 50 nM |

Reference: patent US11034718B2, “C-3 novel triterpenone with C-17 reverse amide derivatives as HIV inhibitors” (HETERO LABS LIMITED, priority 2015, dated 2021)
